How the values were obtained:
[1] = system: multiple sclerosis patients; conditions: orally administered, over a period of days, literature; cited from earlier work
[2] = system: subject with PCS; assay: Subjective symptom assessment, Rivermead Post-Concussion Questionnaire; type: in vivo, human
Description: A single subject, prospective, double blind, placebo controlled trial of 4AP was then conducted in this individual. IRB approvals were obtained from all participating institutions and Subject gave written informed consent for all parts of the study. After a 4-week medication washout period, the Subject was randomly assigned a week's course of placebo, followed by a weeklong medication washout period, followed by another week on 4-AP (10 mg twice daily). Based on the medication half-life, a one week washout period was presumed to be sufficient. Subject and assessors were blinded to treatment allocation.
Measurements conducted at identical times at baseline and on each of the subsequent 3 weeks of the study included: • Balance and mobility assessed by Hi-Mat test (Arch. Phys. Med. Rehabil. 2006, 87(3), 437-442; hereby incorporated by reference in its entirety). • Subjective symptom assessment using the Rivermead Post-Concussion Questionnaire (Clin. Rehabil. 2005, 19(8), 878-887; hereby incorporated by reference in its entirety). • Neuropsychological assessment, consisting of the digit span and cancellation tests from the Wechsler Adult Intelligence Scale, 4th edition (Coalson, D. L., Engi-Raiford, S. Wechsler Adult Intelligence Scale, 4th Ed., in Technical and Interpretive Manual, 4th Ed., San Antonio: Pearson (2008); hereby incorporated by reference in its entirety), the California Verbal Learning Test II (CVLT) (Delis, D. C., Kramer, J. H., Kaplan, E., Ober, B. A. in CVLT-II Manual, San Antonio: The Psychological Corporation (2000); hereby incorporated by reference in its entirety), the Verbal Fluency Test (Connors Continuous Performance Test Computer II Program Version 5 Users Manual, Toronto: Multi-Health Systems, Inc. (2002); hereby incorporated by reference in its entirety), and the Connors Continuous Performance Test (J. Nervous Ment. Dis. 1985, 173(6), 353-357; hereby incorporated by reference in its entirety). • Videonystagmography (VNG) and rotary chair (RC) vestibular testing […]

**Q.** For Nc1ccncc1 [4-AP, 4-Amino pyridine], which “Restoring nerve impulse transmission” value [1] is on record?
**A.** mild to moderate improvements

**Q.** What about the Rivermead score ([2]; session 4 Active: blinded, one week on 4-AP 10 mg twice daily, baseline 43, placebo 24, washout 44) of the same molecule?
**A.** 41

**Q.** And the Rivermead score ([2]; session 5 1st Open: open-label 4AP 10 mg twice daily, 5 weeks after formal study)?
**A.** 21

**Q.** And the Rivermead score ([2]; session 6 2nd Open: open-label 4AP 10 mg twice daily, 9 weeks after formal study)?
**A.** 7
